24 molecules from patent US20260209297A1, “ANTIMICROBIAL PEPTIDES AND MODIFICATIONS THEREOF” (priority 2022, published 2026) can be followed below.

For this test, the system named is Fusarium graminearum PH-1. The format is cell-based. Conditions: for F. graminearum PH-1 MIC Day 1: Fusarium graminearum PH-1, 96-well, resazurin viability; for MIC against F. graminearum: F. graminearum PH-1, Example 7. (In general: The colour change of resazurin is a common sign of viable cells or microbes.)

Consider “PD82.1.1: SEQ ID NO: 538 with N-terminal alanine; Pinus sylvestris wild-type defensin, expressed in Pichia pastoris (RTCLSKSHRFHGYCVRSSSCKEICQTERFLSGECRHTHLGNRRCFCEKPC; N-terminal alanine added; listed as Pinus sylvestris)”, for which the “F. graminearum PH-1 MIC Day 1” value was determined as 1.5 µM.
Still for that read-out and setting: the result for “PD83.1.1: SEQ ID NO: 542 with N-terminal alanine; Eucalyptus grandis wild-type defensin, expressed in Pichia pastoris (RMCESQSHKFHGLCMSDRTCVVVCKEEDFDDGKCRGFRHRCFCRKPC; N-terminal alanine added; listed as Eucalyptus grandis)” reads above 12 µM.
On to “PD84.1.1: SEQ ID NO: 546 with N-terminal alanine; Striga asiatica wild-type defensin, expressed in Pichia pastoris (KICEYKSERFWGVCLSDIKCADVCKDESFESGDCQGLRRRCMCYNHC; N-terminal alanine added; listed as Striga asiatica)”, for which the “F. graminearum PH-1 MIC Day 1” value was above 12 µM.
Still for that read-out and setting: the result for “PD85.1.1: SEQ ID NO: 551 with N-terminal alanine; Panax ginseng wild-type defensin, expressed in Pichia pastoris (KLCEKASLTWSGKCGNTQNCDKQCQNWESAKHGACHKRPTWKCFCYSDC; N-terminal alanine added; Panax ginseng)” reads above 12 µM.
Same read-out and setting: in the case of “PD86.1.1: SEQ ID NO: 555 with N-terminal alanine; Eryanthe guttata wild-type defensin, expressed in Pichia pastoris (SLCETPSRYFNGICFSRRNCGAICEKEGFSSGRCKAFKCVCGKDC; N-terminal alanine added; listed as Eryanthe guttata)” it was 6 µM.
With “PD87.1.1: SEQ ID NO: 560 with N-terminal alanine; Raphanus sativus wild-type defensin, expressed in Pichia pastoris (KLCQRPSGTWSGVCGNNNACKNQCIRLEKARHGSCNYVFPAHKCICYFPC; N-terminal alanine added; listed as Raphanus sativus)”, the “MIC against F. graminearum” value came to 0.75 µM and the “F. graminearum PH-1 MIC Day 1” value was 0.75 µM.
In the case of “PD88.1.1: SEQ ID NO: 565 with N-terminal alanine; Fraxinus excelsior wild-type defensin, expressed in Pichia pastoris (KHCAKLSKGWHGFCAPHKCSRYCIHHEGAYDGACLKHHHSKHIGCYCYYRHC; N-terminal alanine added; Fraxinus excelsior)”, the “F. graminearum PH-1 MIC Day 1” value is above 12 µM.
Take “PD89.1.2: SEQ ID NO: 569 with N-terminal alanine; Crambe maritima wild-type defensin, expressed in Pichia pastoris (KLCRKPSGTWSGLCANSDSCRKQCINLEKAKDGSCKYKFPAHKCFCYY; N-terminal alanine added; listed as Crambe maritima)”: the “F. graminearum PH-1 MIC Day 1” value worked out at 12 µM.
Still for that read-out and setting: the result for “PD92.1.1: SEQ ID NO: 583 with N-terminal alanine; Trifolium pratense wild-type defensin, expressed in Pichia pastoris (RKCESKRRWIYGNCLSDEKCASDCLVKGFLFGKCRGYDNRCYCKKPRC; N-terminal alanine added; Trifolium pratense)” reads 3 µM; that for “PD93.1.1: SEQ ID NO: 588 with N-terminal alanine; Fragaria vesca wild-type defensin, expressed in Pichia pastoris (KICEVPSKTFKGLCVKDRNCVVRCHSEGYGNGKCSHVRRQCMCLKICD; N-terminal alanine added; listed as Fragaria vesca)”, above 12 µM.
Same read-out and setting: in the case of “PD94.1.1: SEQ ID NO: 593 with N-terminal alanine; Solanum lycopersicum wild-type defensin, expressed in Pichia pastoris (KLCQYHSETFHGVCVTGNNCNRHCQRENFEGGRCHGIRHYRCVCYRTC; N-terminal alanine added; listed as Solanum lycopersicum)” it was above 12 µM.
In the case of “PD95.1.1: SEQ ID NO: 598 with N-terminal alanine; Mimulus guttatus wild-type defensin, expressed in Pichia pastoris (RHCESPSHRFKGICVRKSNCAAICQTEGFSSGKCRGFRSRCVCIKHC; N-terminal alanine added; listed as Mimulus guttatus)”, the “MIC against F. graminearum” value stood at 0.75 µM and the “F. graminearum PH-1 MIC Day 1” value stood at 0.75 µM.
Take “PD96.1.1: SEQ ID NO: 603 with N-terminal alanine; Thlaspi arvense wild-type defensin, expressed in Pichia pastoris (RMCESKSHEFKGFCTKWRICRDVCITEGFTDGGCHGVLRHCVCKKPCLLSN; N-terminal alanine added; Thlaspi arvense)”: the “MIC against F. graminearum” value stood at 0.75 µM and the “F. graminearum PH-1 MIC Day 1” value is 0.75 µM.
Take “PD99.1.1: SEQ ID NO: 616 with N-terminal alanine; Theobroma cacao wild-type defensin, expressed in Pichia pastoris (KLCQKRSKTWTGPCIKTKNCDHQCRKWEKAQHGACHWQWPGFACFCYVNC; N-terminal alanine added; Theobroma cacao)”: the “MIC against F. graminearum” value is 0.75 µM and the “F. graminearum PH-1 MIC Day 1” value came to 0.75 µM.
Turning to “PD120.1.1: SEQ ID NO: 706 with N-terminal alanine; Setaria italica wild-type defensin, expressed in Pichia pastoris (DRCETHSRTYKGRCNNHNCWSICITEGNTGGFCKGTLLLKCMCTSEC; N-terminal alanine added; listed as Setaria italica)”, the “F. graminearum PH-1 MIC Day 1” value is 12 µM.
In the case of “PD121.1.1: SEQ ID NO: 711 with N-terminal alanine; Setaria italica wild-type defensin, expressed in Pichia pastoris (RHCLSQSHHFKGLCLSSSNCANVCRVERFPDGECQTTAGTRKCFCKRIC; N-terminal alanine added; listed as Setaria italica)”, the “F. graminearum PH-1 MIC Day 1” value worked out at 1.5 µM.
Same read-out and setting: in the case of “PD123.1.1: SEQ ID NO: 719 with N-terminal alanine; Striga asiatica wild-type defensin, expressed in Pichia pastoris (RKCESKSQQFKGLCFIKANCAAVCRTEGFHSGHCRGFRRRCYCTKHC; N-terminal alanine added; listed as Striga asiatica)” it was 6 µM.
Consider “PD124.1.1: SEQ ID NO: 723 with N-terminal alanine; Rubus argutus wild-type defensin, expressed in Pichia pastoris (RICEVPSKTFIGLCFKDTNCIVRCRSEGYGYGKCSHFRRRCRCFKPCP; N-terminal alanine added; listed as Rubus argutus)”, for which the “F. graminearum PH-1 MIC Day 1” value is 2 µM.
The same measure, in the same setting: the result for “PD125.1.1: SEQ ID NO: 728 with N-terminal alanine; wild-type defensin-like protein, expressed in Pichia pastoris (VICPLESKRSKTWSGVCAQSKNCDKQCKTWERAKHGACHATYGKVLGVKACMHAGNK; N-terminal alanine added; listed as Prunus armeniaca)” reads 8 µM; that for “PD126.1.1: SEQ ID NO: 730 with N-terminal alanine; wild-type defensin-like protein, expressed in Pichia pastoris (KLCERRSKTWTGWCAKTSHCNKQCKDWERVEHGACHGEFLEKPVSAISNAHCKISF; N-terminal alanine added; listed as Prunus armeniaca)”, above 12 µM; that for “PD128.1.1: SEQ ID NO: 734 with N-terminal alanine; wild-type defensin-like protein, expressed in Pichia pastoris (RVCLRRSKTWTGFCGNTRGFDSQCKRWECALHGACHC; N-terminal alanine added; listed as Lepidium sativum)”, above 12 µM.

B1: PD91.1.1: SEQ ID NO: 578 with N-terminal alanine; Setaria viridis wild-type defensin, expressed in Pichia pastoris (protein, listed as Setaria viridis)
chain: AYMCTTQNRFFHGRCVNNLNCASSCVHGRLGTGGHCATRKRSAADPGVDIDWVWNRRICVCVFQC
modifications: N-terminal alanine added
notes: Setaria viridis wild-type defensin, expressed in Pichia pastoris
On to B1, for which the “F. graminearum PH-1 MIC Day 1” value was above 12 µM.

B2: PD97.1.1: SEQ ID NO: 608 with N-terminal alanine; Rubus chingii wild-type defensin, expressed in Pichia pastoris (protein, listed as Rubus chingii)
chain: GACPLVSKRSKTWSGFCGSSNNCNKQCRSWESAQHGACHNTYKTVLGVKVISGRACFCYFCKKHT
modifications: N-terminal alanine added
notes: Rubus chingii wild-type defensin, expressed in Pichia pastoris
Consider B2, for which the “F. graminearum PH-1 MIC Day 1” value amounted to 1.5 µM.

B3: PD127.1.1: SEQ ID NO: 732 with N-terminal alanine; wild-type defensin-like protein, expressed in Pichia pastoris (protein, listed as Potentilla micrantha)
chain: GACPLVQKRSKTWSGFCGSSNNCDKQCRTWEKAKHGACHATGDLKGTPRLKLRSCHARRSKDH
modifications: N-terminal alanine added
notes: wild-type defensin-like protein, expressed in Pichia pastoris
Regarding B3, the “F. graminearum PH-1 MIC Day 1” value was above 12 µM.
